The values below are quoted from earlier work in patent EP3735959A1, “COMPOSITIONS TO REDUCE HYPERPIGMENTATION” (InnovativeHealth Group SL, priority 2019, dated 2020).

In the series the test system is human epidermal melanocytes.

Regarding `C=C(C)[C@@H]1CCC(C)=C[C@H]1c1c(O)cc(CCCCC)cc1O` [CBD, Cannabidiol], the melanogenesis result (6 µM, by increasing the expression of MITF (reference 6)) is “induced melanogenesis”. In addition, the cellular tyrosinase activity result (human epidermal melanocytes, concentration dependent (reference 6)) was “significantly increased”.
